Data from patent US9527869B2, “Indolizine derivatives as phoshoinositide 3-kinases inhibitors” (CHIESI FARMACEUTICI S.P.A., priority 2014, dated 2016).

Legend:
Type in all cases: biochemical
[1] = biological target: T1, PI3Kγ (Homo sapiens, UniProt P48736); assay: In vitro determination of the PI3K enzyme inhibitory activity in the cell free assay (ADP-Glo Kinase Assay), PI3Kγ; details: ATP 30 μM, read-out: PI3K gamma inhibition
T1 construct: purchased Millipore Ltd (Billerica, Mass.)
Description: (§1) In vitro Determination of the PI3K Enzyme Inhibitory Activity in the Cell Free Assay
(§2) Human recombinant proteins PI3Kα, PI3Kβ, PI3Kγ and PI3Kδ were purchased from Millipore Ltd (Billerica, Mass.). Compounds were dissolved at 0.5 mM in DMSO and were tested at different concentrations for their activity against PI3Ks using the ADP-Glo™ Kinase Assay (Promega, Madison Wis.) according to the manufacturer's instructions.
(§3) Briefly, the kinase reactions were performed in 384-well white plates (Greiner Bio-One GmbH, Frickenhausen). Each well was loaded with 0.1 μl of test compounds and 2.5 μl of 2× reaction buffer (40 mM Tris pH7.5, 0.5 mM EGTA, 0.5 mM Na3VO4, 5 mM β-glycerophosphate, 0.1 mg/ml BSA, 1 mM DTT), containing 50 μM PI and PS substrates (L-α-phosphatidylinositol sodium salt and L-α-phosphatidyl-L-serine, Sigma-Aldrich, St. Louis Mo.) and the PI3K recombinant proteins (PI3Kγ 0.25 ng/μl, PI3Kδ 1 ng/μl, PI3Kα 0.125 ng/μl, PI3Kβ 1 ng/μl).
(§4) The reactions were started by adding 2.5 μl of 2×ATP solution to each well (final concentrations: PI3Kγ ATP 30 μM; PI3Kδ ATP 80 μM; PI3KαATP 50 μM; PI3Kβ ATP 100 μM) and incubated for 60 min at room temperature. Subsequently, each kinase reaction was incubated for 40 min with 5 μl ADP-Glo™ Reagent, allowing depletion of unconsumed ATP. Then, the Kinase Detection Reagent (10 μl) was added in each well to convert ADP to ATP and to allow the newly synthesized ATP to be measured using a luciferase/luciferin reaction. Following 60 min incubation, the luminescence signal was measured using a Wallac EnVision® multilabel reader (PerkinElmer, Waltham Mass.).
(§5) Curve fitting and IC50 calculation were carried out using a four-parameter logistic model in XLfit (IDBS, Guilford, UK) for Microsoft Excel (Microsoft, Redmont, Wash.).

[2] = biological target: T2, PI3Kα (Homo sapiens, UniProt P42336); assay: In vitro determination of the PI3K enzyme inhibitory activity in the cell free assay (ADP-Glo Kinase Assay), PI3Kα; details: ATP 50 μM, read-out: PI3K alpha inhibition
T2 construct: purchased Millipore Ltd (Billerica, Mass.)
T2 sequence (P42336 whole entry): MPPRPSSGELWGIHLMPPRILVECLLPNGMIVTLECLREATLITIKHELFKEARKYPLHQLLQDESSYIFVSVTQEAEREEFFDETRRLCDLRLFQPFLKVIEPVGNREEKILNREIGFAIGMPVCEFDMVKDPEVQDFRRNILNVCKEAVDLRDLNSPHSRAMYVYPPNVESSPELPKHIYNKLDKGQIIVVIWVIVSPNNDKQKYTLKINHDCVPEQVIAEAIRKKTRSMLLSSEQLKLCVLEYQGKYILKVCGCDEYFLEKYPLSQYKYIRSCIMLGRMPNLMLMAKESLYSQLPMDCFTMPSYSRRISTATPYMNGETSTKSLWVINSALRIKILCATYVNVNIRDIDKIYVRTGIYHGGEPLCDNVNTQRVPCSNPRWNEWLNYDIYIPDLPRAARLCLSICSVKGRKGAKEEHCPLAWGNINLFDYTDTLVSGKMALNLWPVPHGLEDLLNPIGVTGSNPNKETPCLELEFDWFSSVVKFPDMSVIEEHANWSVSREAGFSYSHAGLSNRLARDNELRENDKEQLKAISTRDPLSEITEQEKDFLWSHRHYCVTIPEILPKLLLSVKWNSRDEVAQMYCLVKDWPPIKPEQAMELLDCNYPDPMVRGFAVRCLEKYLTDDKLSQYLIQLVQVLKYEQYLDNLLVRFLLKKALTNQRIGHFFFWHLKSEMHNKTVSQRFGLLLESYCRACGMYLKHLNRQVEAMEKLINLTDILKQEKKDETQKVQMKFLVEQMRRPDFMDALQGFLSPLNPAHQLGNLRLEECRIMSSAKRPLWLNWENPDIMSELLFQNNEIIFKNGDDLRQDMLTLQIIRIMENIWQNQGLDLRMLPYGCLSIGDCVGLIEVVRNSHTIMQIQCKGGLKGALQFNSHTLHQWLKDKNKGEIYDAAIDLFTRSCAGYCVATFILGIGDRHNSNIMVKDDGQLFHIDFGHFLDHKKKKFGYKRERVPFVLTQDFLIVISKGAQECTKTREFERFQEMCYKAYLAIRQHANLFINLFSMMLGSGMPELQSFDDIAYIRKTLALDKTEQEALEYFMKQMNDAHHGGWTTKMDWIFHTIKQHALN
T2 sequence (P27986 whole entry partner): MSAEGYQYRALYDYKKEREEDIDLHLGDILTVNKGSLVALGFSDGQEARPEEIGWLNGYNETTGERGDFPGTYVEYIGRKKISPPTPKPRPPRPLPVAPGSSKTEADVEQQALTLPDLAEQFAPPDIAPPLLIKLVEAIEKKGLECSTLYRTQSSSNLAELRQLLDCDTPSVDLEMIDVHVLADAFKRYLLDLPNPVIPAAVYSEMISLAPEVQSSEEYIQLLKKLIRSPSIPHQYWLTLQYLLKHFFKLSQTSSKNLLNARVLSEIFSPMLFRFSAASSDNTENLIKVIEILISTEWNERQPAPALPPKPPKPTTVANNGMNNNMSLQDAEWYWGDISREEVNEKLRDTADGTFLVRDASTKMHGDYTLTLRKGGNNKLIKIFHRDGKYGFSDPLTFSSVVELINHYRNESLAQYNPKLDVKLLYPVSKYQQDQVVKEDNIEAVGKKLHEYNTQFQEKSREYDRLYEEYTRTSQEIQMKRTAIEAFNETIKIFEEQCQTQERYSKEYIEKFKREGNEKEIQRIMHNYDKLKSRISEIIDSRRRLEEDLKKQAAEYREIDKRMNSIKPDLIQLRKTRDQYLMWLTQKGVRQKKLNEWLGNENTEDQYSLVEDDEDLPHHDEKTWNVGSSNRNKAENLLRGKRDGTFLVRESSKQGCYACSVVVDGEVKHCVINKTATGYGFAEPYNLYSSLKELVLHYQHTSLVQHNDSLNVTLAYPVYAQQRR
Description: as §1, §2, §3, §4, §5

[3] = biological target: T3, PI3Kδ (Homo sapiens, UniProt O00329); assay: In vitro determination of the PI3K enzyme inhibitory activity in the cell free assay (ADP-Glo Kinase Assay), PI3Kδ; details: ATP 80 μM, read-out: PI3K delta inhibition
T3 construct: purchased Millipore Ltd (Billerica, Mass.)
T3 sequence (O00329 whole entry): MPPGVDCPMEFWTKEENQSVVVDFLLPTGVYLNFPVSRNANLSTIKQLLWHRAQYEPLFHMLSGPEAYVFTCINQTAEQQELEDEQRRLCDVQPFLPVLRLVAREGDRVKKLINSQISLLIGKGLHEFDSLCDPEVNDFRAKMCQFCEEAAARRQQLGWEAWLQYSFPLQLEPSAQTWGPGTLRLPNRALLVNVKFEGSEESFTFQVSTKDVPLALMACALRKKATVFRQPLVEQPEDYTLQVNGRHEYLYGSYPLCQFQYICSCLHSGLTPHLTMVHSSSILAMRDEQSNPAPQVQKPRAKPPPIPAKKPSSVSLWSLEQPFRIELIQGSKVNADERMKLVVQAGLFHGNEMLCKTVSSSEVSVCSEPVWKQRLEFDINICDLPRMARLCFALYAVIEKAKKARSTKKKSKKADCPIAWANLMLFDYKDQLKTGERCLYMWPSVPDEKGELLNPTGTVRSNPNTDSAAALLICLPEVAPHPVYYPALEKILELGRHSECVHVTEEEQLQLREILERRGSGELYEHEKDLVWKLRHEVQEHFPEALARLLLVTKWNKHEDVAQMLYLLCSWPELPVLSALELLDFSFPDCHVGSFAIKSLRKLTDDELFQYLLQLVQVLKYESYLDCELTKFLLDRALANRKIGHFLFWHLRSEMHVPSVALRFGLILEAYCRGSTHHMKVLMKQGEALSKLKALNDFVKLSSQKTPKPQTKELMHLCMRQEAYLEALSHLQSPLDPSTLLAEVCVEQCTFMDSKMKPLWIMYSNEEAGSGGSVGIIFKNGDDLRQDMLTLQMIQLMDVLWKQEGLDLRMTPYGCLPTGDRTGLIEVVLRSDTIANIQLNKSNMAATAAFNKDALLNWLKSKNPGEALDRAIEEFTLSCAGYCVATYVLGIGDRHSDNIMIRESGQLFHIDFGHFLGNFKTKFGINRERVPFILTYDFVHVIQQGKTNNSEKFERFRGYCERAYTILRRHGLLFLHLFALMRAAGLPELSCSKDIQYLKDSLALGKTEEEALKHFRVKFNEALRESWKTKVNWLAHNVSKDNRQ
T3 sequence (P27986 whole entry partner): as the sequence (P27986 whole entry partner) above
Description: as §1, §2, §3, §4, §5

[4] = biological target: T4, PI3Kβ (Homo sapiens, UniProt P42338); assay: In vitro determination of the PI3K enzyme inhibitory activity in the cell free assay (ADP-Glo Kinase Assay), PI3Kβ; details: ATP 100 μM, read-out: PI3K beta inhibition
T4 construct: purchased Millipore Ltd (Billerica, Mass.)
T4 sequence (P42338 whole entry): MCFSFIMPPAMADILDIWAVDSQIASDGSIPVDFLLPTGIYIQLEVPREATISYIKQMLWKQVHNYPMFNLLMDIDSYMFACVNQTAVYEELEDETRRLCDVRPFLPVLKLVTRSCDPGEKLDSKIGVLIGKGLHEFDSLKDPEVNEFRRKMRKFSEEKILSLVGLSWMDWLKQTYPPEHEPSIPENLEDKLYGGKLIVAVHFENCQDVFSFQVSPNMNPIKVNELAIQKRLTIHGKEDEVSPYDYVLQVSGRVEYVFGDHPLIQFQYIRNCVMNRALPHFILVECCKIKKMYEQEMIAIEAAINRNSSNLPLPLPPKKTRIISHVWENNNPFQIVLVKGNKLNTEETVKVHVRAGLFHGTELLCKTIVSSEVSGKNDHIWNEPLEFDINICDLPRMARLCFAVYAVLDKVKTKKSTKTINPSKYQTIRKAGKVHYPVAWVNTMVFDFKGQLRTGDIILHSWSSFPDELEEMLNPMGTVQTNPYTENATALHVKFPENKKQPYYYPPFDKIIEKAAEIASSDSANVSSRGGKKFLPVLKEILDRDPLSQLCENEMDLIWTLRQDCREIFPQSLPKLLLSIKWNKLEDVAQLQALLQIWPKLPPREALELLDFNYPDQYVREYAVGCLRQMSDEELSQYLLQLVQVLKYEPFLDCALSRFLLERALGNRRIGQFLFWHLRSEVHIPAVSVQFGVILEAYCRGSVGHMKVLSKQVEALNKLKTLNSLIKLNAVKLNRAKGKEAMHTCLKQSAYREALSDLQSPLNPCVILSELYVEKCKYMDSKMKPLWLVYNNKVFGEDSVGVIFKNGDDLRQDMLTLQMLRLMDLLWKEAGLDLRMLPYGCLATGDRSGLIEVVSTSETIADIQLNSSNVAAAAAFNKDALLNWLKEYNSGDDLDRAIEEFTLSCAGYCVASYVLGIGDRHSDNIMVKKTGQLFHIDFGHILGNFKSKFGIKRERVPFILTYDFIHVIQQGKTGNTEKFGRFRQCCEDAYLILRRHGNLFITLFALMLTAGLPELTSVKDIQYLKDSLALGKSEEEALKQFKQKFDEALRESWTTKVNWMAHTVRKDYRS
T4 sequence (P27986 whole entry partner): as the sequence (P27986 whole entry partner) above
Description: as §1, §2, §3, §4, §5

T1 sequence (P48736 whole entry): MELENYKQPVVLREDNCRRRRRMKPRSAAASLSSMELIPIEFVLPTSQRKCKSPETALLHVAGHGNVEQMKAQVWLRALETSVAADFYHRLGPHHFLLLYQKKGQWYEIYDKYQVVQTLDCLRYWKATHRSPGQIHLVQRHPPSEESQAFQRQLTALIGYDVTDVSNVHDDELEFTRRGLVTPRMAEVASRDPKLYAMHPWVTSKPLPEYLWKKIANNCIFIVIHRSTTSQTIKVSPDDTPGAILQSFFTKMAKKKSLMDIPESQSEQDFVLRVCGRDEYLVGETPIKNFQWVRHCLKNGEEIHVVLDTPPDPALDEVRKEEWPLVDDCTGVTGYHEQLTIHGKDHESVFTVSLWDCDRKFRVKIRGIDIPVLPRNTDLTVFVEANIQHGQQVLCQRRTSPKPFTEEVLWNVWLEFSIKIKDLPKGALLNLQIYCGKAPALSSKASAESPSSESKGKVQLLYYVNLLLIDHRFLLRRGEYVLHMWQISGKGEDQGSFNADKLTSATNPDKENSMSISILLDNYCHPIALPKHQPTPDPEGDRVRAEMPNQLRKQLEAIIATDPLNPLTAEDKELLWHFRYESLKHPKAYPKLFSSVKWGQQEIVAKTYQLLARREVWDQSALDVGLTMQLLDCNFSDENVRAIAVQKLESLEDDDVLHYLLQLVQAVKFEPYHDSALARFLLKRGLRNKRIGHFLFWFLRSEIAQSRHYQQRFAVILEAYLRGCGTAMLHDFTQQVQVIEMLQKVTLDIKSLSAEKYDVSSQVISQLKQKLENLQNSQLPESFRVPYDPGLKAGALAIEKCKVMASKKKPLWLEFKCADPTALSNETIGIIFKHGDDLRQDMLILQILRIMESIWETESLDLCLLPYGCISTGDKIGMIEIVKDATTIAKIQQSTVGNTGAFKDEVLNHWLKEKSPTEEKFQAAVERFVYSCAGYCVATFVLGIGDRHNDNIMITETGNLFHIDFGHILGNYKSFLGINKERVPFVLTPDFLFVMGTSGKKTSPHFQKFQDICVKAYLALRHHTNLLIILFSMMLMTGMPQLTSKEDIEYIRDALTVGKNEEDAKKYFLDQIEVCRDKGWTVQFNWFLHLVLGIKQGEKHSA

| Compound | IC50 [1] [µM] | IC50 [2] [µM] | IC50 [3] [µM] | IC50 [4] [µM] |
| --- | --- | --- | --- | --- |
| CC(c1cc2ccccn2c1-c1ccccn1)n1nc(-c2cccc(O)c2)c2c(N)ncnc21 (stereo not shown) [Example 61, 3-(4-amino-1-{1-[3-(pyridin-2-yl)indolizin-2-yl]ethyl}-1H-pyrazolo[3,4-d]pyrimidin-3-yl)phenol] | 0.01 to 1 | > 1 | 0.01 to 1 | 0.01 to 1 |
| CC(c1cc2ccccn2c1-c1cccc(CN2CCN(C)CC2)n1)n1nc(-c2cc(O)cc(F)c2)c2c(N)ncnc21 (stereo not shown) [Example 115, 3-{4-amino-1-[1-(3-{6-[(4-methylpiperazin-1-yl)methyl]pyridin-2-yl}indolizin-2-yl)ethyl]-1H-pyrazolo-[3,4-d]pyrimidin-3-yl}-5-fluorophenol] | 0.01 to 1 | 0.01 to 1 | 0.01 to 1 | 0.01 to 1 |
| Nc1ncn(Cc2cc3ccccn3c2-c2ccccc2)c2ncnc1-2 [Example 2, 3-[(3-phenylindolizin-2-yl)methyl]-3H-purin-6-amine] | > 1 | > 1 | > 1 | > 1 |
| C[C@@H](c1cc2ccccn2c1-c1ccncc1)n1nc(-c2cc(O)cc(F)c2)c2c(N)ncnc21 (single isomer, unassigned) [Example 84, 3-(4-amino-1-{1-[3-(pyridin-4-yl)indolizin-2-yl]ethyl}-1H-pyrazolo[3,4-d]pyrimidin-3-yl)-5-fluorophenol] | > 1 | > 1 | 0.01 to 1 | > 1 |
| CC(c1cc2ccccn2c1CN1CCC2(CCCN(C)C2)CC1)n1nc(-c2cc(O)cc(F)c2)c2c(N)ncnc21 (stereo not shown) [Example 142, 3-(4-amino-1-{1-[3-({2-methyl-2,9-diazaspiro[5.5]-undecan-9-yl}methyl)indolizin-2-yl]ethyl}-1H-pyrazolo[3,4-d]-pyrimidin-3-yl)-5-fluorophenol] | 0.01 to 1 | > 1 | 0.01 to 1 | > 1 |
| CC(c1cc2ccccn2c1-c1ccc(CN2CCOCC2)s1)n1nc(-c2cc(O)cc(F)c2)c2c(N)ncnc21 (stereo not shown) [Example 90, 3-[4-amino-1-(1-{3-[5-(morpholin-4-ylmethyl)thiophen-2-yl]indolizin-2-yl}ethyl)-1H-pyrazolo[3,4-d]pyrimidin-3-yl]-5-fluorophenol] | 0.01 to 1 | 0.01 to 1 | < 0.01 | 0.01 to 1 |
| C[C@H](c1cc2ccccn2c1-c1ccn(CCN2CCOCC2)c(=O)c1)n1nc(-c2cc(O)cc(F)c2)c2c(N)ncnc21 (single isomer, unassigned) [Example 121b, 4-(2-{1-[4-amino-3-(3-fluoro-5-hydroxyphenyl)-1H-pyrazolo[3,4-d]pyrimidin-1-yl]ethyl}indolizin-3-yl)-1-[2-(morpholin-4-yl)ethyl]-1,2-dihydropyridin-2-one] | 0.01 to 1 | 0.01 to 1 | < 0.01 | 0.01 to 1 |
| N#Cc1c(N)ncnc1NCc1cc2ccccn2c1-c1ccccc1 [Example 22, 4-amino-6-{[(3-phenylindolizin-2-yl)methyl]amino}pyrimidine-5-carbonitrile] | > 1 | > 1 | 0.01 to 1 | > 1 |
| N#Cc1c(N)ncnc1NCc1cn2ccccc2c1-c1cccc(F)c1 [Example 28, 4-amino-6-({[1-(3-fluorophenyl)indolizin-2-yl]methyl}amino)pyrimidine-5-carbonitrile] | > 1 | > 1 | 0.01 to 1 | > 1 |
| C[C@H](c1cc2ccccn2c1-c1ccc(CN2CCOCC2)cn1)n1nc(-c2cc(O)cc(F)c2)c2c(N)ncnc21 (single isomer, unassigned) [Example 108a, 3-[4-amino-1-(1-{3-[5-(morpholin-4-ylmethyl)pyridin-2-yl]indolizin-2-yl}ethyl)-1H-pyrazolo[3,4-d]pyrimidin-3-yl]-5-fluorophenol] | > 1 | > 1 | < 0.01 | 0.01 to 1 |
